Columns and labels:
[1] = test system: MSSA; assay: plug-based drug screening in human blood plasma/LB, MSSA; conditions: MSSA in 1:1 human blood plasma/LB; breakpoint concentration; 7.5 h at 37° C
[2] = test system: Methicillin Resistant S. aureus (MRSA, ATCC#43300); assay: plug-based microfluidic antibiotic susceptibility screen with alamarBlue viability indicator; conditions: FIG. 2c; breakpoint concentration; negative control VCM, positive control blank
[3] = test system: Methicillin Sensitive S. aureus (MSSA); conditions: 24 mg/L; cited from earlier work
[4] = test system: Methicillin Resistant S. aureus (MRSA); conditions: 24 mg/L; cited from earlier work
[5] = test system: Staphylococcus aureus ATCC#25923 (MSSA); assay: antibiotic testing on Mueller Hinton agar plates, MSSA; conditions: 30° C; even after 40 h
Experimental: Plates were made from Mueller Hinton Agar (Fluka, Switzerland). After autoclaving, the agar was cooled and antibiotics were added and 20 mL plates were poured. For CFX and OXA testing, 50 μL of MRSA and MSSA bacterial culture at 4×10^3 CFU/mL was spread onto separate TSA plates. The plates were incubated at 30° C. After 16.5 h and 40 h the plates were examined for colonies. […] For AMP, ERT, LVF, and VCM, 5 μL of culture at 2×10^4 CFU/mL were spread onto plates, and the plates were incubated at 37° C. for 12 h. After 12 h, growth of colonies on the plates was considered resistance to the antibiotic and no colonies on the plates were considered sensitivity to the antibiotic. For all tests, control plates with no antibiotic were inoculated to ensure that each plate tested received many CFU during inoculation.

[6] = test system: Methicillin Resistant S. aureus (MRSA, ATCC#43300); assay: macro-scale experiments, MRSA

| Structure (SMILES) | increase in fluorescence intensity of plugs with antibiotic [1] | plug fluorescence compared to positive and negative controls (unpaired t-test) [2] | known inhibition of the strain by CFX [3] | known inhibition of the strain by CFX [4] | appearance of MSSA colonies on antibiotic plates [5] | inhibition of the S. aureus strain in macro-scale experiments [6] |
| --- | --- | --- | --- | --- | --- | --- |
| CC1(C)S[C@@H]2[C@H](NC(=O)[C@H](N)c3ccccc3)C(=O)N2[C@H]1C(=O)O [AMP, ampicillin] | no increase in fluorescence intensity | statistically different than the negative control |  |  |  |  |
| CO[C@@]1(NC(=O)Cc2cccs2)C(=O)N2C(C(=O)O)=C(COC(N)=O)CS[C@@H]21 [CFX, cefoxitin] |  | statistically different than the negative control | inhibited | inhibited | did not appear |  |
| CC[C@H]1OC(=O)[C@H](C)[C@@H](O[C@H]2C[C@@](C)(OC)[C@@H](O)[C@H](C)O2)[C@H](C)[C@@H](O[C@@H]2O[C@H](C)C[C@H](N(C)C)[C@H]2O)[C@](C)(O)C[C@@H](C)C(=O)[C@H](C)[C@@H](O)[C@]1(C)O [ERT, erythromycin] |  | statistically different than the negative control |  |  |  |  |
| Cc1onc(-c2ccccc2)c1C(=O)N[C@@H]1C(=O)N2[C@@H]1SC(C)(C)[C@@H]2C(=O)O [OXA, oxacillin] |  | statistically different than the negative control |  |  | did not appear |  |
| CN[C@H](CC(C)C)C(=O)N[C@H]1C(=O)N[C@@H](CC(N)=O)C(=O)N[C@H]2C(=O)N[C@H]3C(=O)N[C@H](C(=O)N[C@H](C(=O)O)c4cc(O)cc(O)c4-c4cc3ccc4O)[C@H](O)c3ccc(c(Cl)c3)Oc3cc2cc(c3O[C@@H]2O[C@H](CO)[C@@H](O)[C@H](O)[C@H]2O[C@H]2C[C@](C)(N)[C@H](O)[C@H](C)O2)Oc2ccc(cc2Cl)[C@H]1O [VCM, vancomycin] |  | statistically different than positive controls |  |  |  | inhibited |
